Source: patent US5591741A, “Fungicidal spiroheterocyclic derivatives” (American Cyanamid Company, priority 1993, dated 1997)

How the values were obtained:
Alternaria solani = experiment: Activity against tomato early blight (AS); type: in vivo; conditions: Table VI; tomato seedlings, contact prophylactic foliar spray, 4 days
Protocol: b) Activity against tomato early blight (Alternaria solani; AS) This test measures the contact prophylactic activity of test compounds applied as a foliar spray. Tomato seedlings (cv Outdoor Girl) are grown to the stage at which the second true leaf is expanded. The plants are treated using an automated sprayline as described under (a). Test compounds are applied as solutions or suspensions in a mixture of acetone and water (50:50 v/v) containing 0.04% surfactant ("TWEEN 20"--Trade Mark). After drying the plants are kept for 24 hours in a glasshouse at 20° C. and 40% R.H., followed by inoculation of the leaf upper surfaces with a suspension of A. solani conidia containing 10^4 spores/ml. For 4 days after inoculation plants are kept moist in a humidity compartment at 21° C. Disease is assessed 4 days after inoculation, based on the percentage of leaf surface area covered by lesions when compared with control plants. The extent of disease control in all the above tests is expressed as a rating compared with either an untreated control or a diluent-sprayed-control, according to the criteria: […]

[1] = tested on: Erysiphe graminis f.sp. hordei; experiment: Activity against barley powdery mildew, direct therapeutic (EGT); type: in vivo; conditions: direct therapeutic foliar spray, 600 ppm, up to 7 days
Protocol: (e) Activity against barley powdery mildew (Erysiphe graminis f.sp. hordei; EGT) The test is a direct therapeutic foliar spray. Leaves of barley seedlings, (cv. Golden Promise) at the single leaf stage are inoculated by dusting with mildew conidia one day prior to treatment with the test compound. The inoculated plants are kept overnight at glasshouse ambient temperature (18° C.) and humidity (40%) prior to treatment. The plants are sprayed with the test compound at a dosage of 600 ppm using an automated sprayline as described under (a). After drying, plants are returned to a compartment at 18° C. and 40% humidity for up to 7 days. Assessment is based on the percentage of leaf area covered by sporulation compared with that on leaves of control plants. The extent of disease control in all the above tests is expressed as a rating compared with either an untreated control or a diluent-sprayed-control, according to the criteria: […]

Plasmopara viticola = experiment: Antisporulant activity against vine downy mildew (PVA); type: in vivo; conditions: vine leaves, antisporulant foliar spray, 600 ppm, 750 l/ha
Protocol: (a) Antisporulant activity against vine downy mildew (Plasmopara viticola; PVA) The test is a direct antisporulant one using a foliar spray. The lower surfaces of leaves of whole vine plants (cv Cabernet Sauvignon), approximately 8 cm high, are inoculated by spraying with an aqueous suspension containing 5×10^4 zoosporangia/ml. The inoculated plants are kept for 24 hours at 21° C. in a high humidity compartment, then 24 hours at glasshouse ambient temperature and humidity. Infected leaves are sprayed on their lower surfaces with a solution of active material in 1:1 water/acetone containing 0.04% "TWEEN 20" (Trade Mark; a polyoxyethylene sorbitan ester surfactant). Plants are treated using an automated sprayline with an atomising nozzle. The concentration of the compound is 600 ppm, and the spray volume is 750 l/ha. After spraying, the plants are returned to normal glasshouse conditions for 96 hours and are then transferred to the high humidity compartment for 24 hours to induce sporulation. Assessment is based on the percentage of the leaf area covered by sporulation compared with that on control leaves. The extent of disease control in all the above tests is expressed as a rating compared with either an untreated control or a diluent-sprayed-control, according to the criteria: […]

Venturia inaequalis = experiment: Activity against apple scab in-vitro (VII); type: cell-based; conditions: 10 ppm, 10 days, 20° C., mycelial growth
Protocol: (j) Activity against apple scab in-vitro (Venturia inaequalis: VII) This test measures the in-vitro activity of compounds against V. inaequalis that causes apple scab. The test compound in acetone is added into 4 ml aliquots of half strength Potato Dextrose Broth dispensed in 25-compartment petri dishes to give final concentrations of 10 ppm. The fungal inoculum consists of mycelial fragments and spores of V. inaequalis grown on malt agar and added to the broth to provide 5×10^4 propagules/ml broth. Petri dishes are incubated at 20° C. for 10 days until the assessment of mycelial growth. The extent of disease control in all the above tests is expressed as a rating compared with either an untreated control or a diluent-sprayed-control, according to the criteria: […]

[2] = tested on: Erysiphe graminis f.sp. hordei; experiment: Direct protectant activity against barley powdery mildew (EGP); type: in vivo; conditions: direct protectant foliar spray, 8 days
Protocol: (f) Direct protectant activity against barley powdery mildew (Erysiphe graminis f.sp. hordei; EGP) The test is a direct protectant foliar spray. Leaves of barley seedlings (cv Golden Promise) at the single leaf stage are sprayed with the test compound as described under (a). After drying, the plants are kept for 24 hours in a glasshouse at 18° C. and 40% R.H. Then the plants are inoculated by dusting with mildew conidia and kept at 18° C. and 40% R.H. for 8 days. Assessment is based on the percentage of leaf area covered by sporulation compared with that on leaves of control plants. The extent of disease control in all the above tests is expressed as a rating compared with either an untreated control or a diluent-sprayed-control, according to the criteria: […]

Leptosphaeria nodorum = experiment: Activity against wheat leafspot (LN); type: in vivo; conditions: direct therapeutic foliar spray, 600 ppm, 6-8 days
Protocol: (d) Activity against wheat leafspot (Leptosphaeria nodorum; LN.) The test is a direct therapeutic foliar spray. Leaves of wheat plants (cv Norman), at the single leaf stage, are inoculated by spraying with an aqueous suspension containing 1.5×10^6 conidia/ml. The inoculated plants are kept for 24 hours in a high humidity compartment prior to treatment. The plants are sprayed with a solution of the test compound at a dosage of 600 ppm using an automated sprayline as described under (a). After drying, the plants are kept for 6-8 days at 22° C. and moderate humidity (70%). Assessment is based on the density of lesions per leaf compared with that on leaves of control plants. The extent of disease control in all the above tests is expressed as a rating compared with either an untreated control or a diluent-sprayed-control, according to the criteria: […]

Pyricularia oryzae = type: in vivo; conditions: rice seedlings, direct therapeutic foliar spray, 600 ppm, 4-5 days
Rhizoctonia solani = experiment: Activity against Rhizoctonia in-vitro (RSI); type: cell-based; conditions: 10 ppm, 10 days, 20° C., mycelial growth
Protocol: (i) Activity against Rhizoctonia in-vitro (Rhizoctonia solani: RSI) This test measures the in-vitro activity of compounds against R. solani that causes stem and root rots. The test compound in acetone is added into 4 ml aliquots of half strength Potato Dextrose Broth dispensed in 25-compartment petri dishes to give final concentrations of 10 ppm. The fungal inoculum consists of mycelial fragments of R. solani growth in half strength PDB in shaken culture flasks and added to the broth to provide 5×10^4 fragments/ml broth. Petri dishes are incubated at 20° C. for 10 days until the assessment of mycelial growth. The extent of disease control in all the above tests is expressed as a rating compared with either an untreated control or a diluent-sprayed-control, according to the criteria: […]

Botrytis cinerea = experiment: Direct protectant activity against broad bean grey mould (BCB); type: in vivo; conditions: direct protectant foliar spray, 600 ppm, 4 days
Protocol: (c) Direct protectant activity against broad bean grey mould (Botrytis cinerea; BCB) The test is a direct protectant foliar spray. The upper surfaces of leaves of broad bean plants with two leaf pairs (cv The Sutton) are sprayed with the test compound at a dosage of 600 ppm using an automated sprayline as described under (a). 24 hours after spraying the leaves are inoculated with an aqueous suspension containing 10^6 conidia/ml. For 4 days after inoculation plants are kept in a high humidity compartment at 22° C. Disease is assessed 4 days after inoculation, based on the percentage of leaf surface area covered by lesions. The extent of disease control in all the above tests is expressed as a rating compared with either an untreated control or a diluent-sprayed-control, according to the criteria: […]

[3] = tested on: Pseudocercosporella herpotrichoides; experiment: Activity against wheat eyespot in-vitro (PHI); type: cell-based; conditions: 10 ppm, 10 days, 20° C., mycelial growth
Protocol: (h) Activity against wheat eyespot in-vitro (Pseudocercosporella herpotrichoides; pHI) This test measures the in vitro activity of compounds against the fungus causing wheat eyespot. The test compound is dissolved or suspended in acetone and is added into 4 ml aliquots of half strength Potato Dextrose Broth (PDB) dispended in 25-compartment petri dishes to give a final concentration of 10ppm. The fungal inoculum consists of mycelial fragments of P. herpotrichoides grown in half strength PDB in shaken flasks and added to the broth to provide 5×10^4 fragments/ml broth. Petri dishes are incubated at 20° C. for 10 days until the assessment of mycelial growth. The extent of disease control in all the above tests is expressed as a rating compared with either an untreated control or a diluent-sprayed-control, according to the criteria: […]

Phytophthora infestans = type: in vivo; conditions: tomato, direct protectant foliar spray

CC(C)(C)C1CCC2(CC1)CC(N1CCCCC1)CO2 (stereo not drawn) [Compound 10]
disease control rating AS (Alternaria solani): 0 (less than 50% disease control) | disease control rating EGT [1]: 2 (greater than 80% disease control) | disease control rating PVA (Plasmopara viticola): 0 (less than 50% disease control) | disease control rating VII (Venturia inaequalis): 1 (about 50-80% disease control) | disease control rating EGP [2]: 2 (greater than 80% disease control) | disease control rating LN (Leptosphaeria nodorum): 1 (about 50-80% disease control) | disease control rating PO (Pyricularia oryzae): 0 (less than 50% disease control) | disease control rating RSI (Rhizoctonia solani): 0 (less than 50% disease control) | disease control rating BCB (Botrytis cinerea): 2 (greater than 80% disease control) | disease control rating PHI [3]: 1 (about 50-80% disease control) | disease control rating PIP (Phytophthora infestans): 0 (less than 50% disease control)

CC(C)(C)C1CCC2(CC1)CC(N1CCOCC1)CO2 (stereo not drawn) [Compound 11]
disease control rating AS (Alternaria solani): 0 (less than 50% disease control) | disease control rating EGT [1]: 0 (less than 50% disease control) | disease control rating PVA (Plasmopara viticola): 0 (less than 50% disease control) | disease control rating VII (Venturia inaequalis): 1 (about 50-80% disease control) | disease control rating EGP [2]: 2 (greater than 80% disease control) | disease control rating LN (Leptosphaeria nodorum): 0 (less than 50% disease control) | disease control rating PO (Pyricularia oryzae): 0 (less than 50% disease control) | disease control rating RSI (Rhizoctonia solani): 0 (less than 50% disease control) | disease control rating BCB (Botrytis cinerea): 0 (less than 50% disease control) | disease control rating PHI [3]: 1 (about 50-80% disease control) | disease control rating PIP (Phytophthora infestans): 0 (less than 50% disease control)

CCCCN(CCCC)C1COC2(CCC(C(C)(C)C)CC2)C1 (stereo not drawn) [Compound 12]
disease control rating AS (Alternaria solani): 0 (less than 50% disease control) | disease control rating EGT [1]: 2 (greater than 80% disease control) | disease control rating PVA (Plasmopara viticola): 0 (less than 50% disease control) | disease control rating VII (Venturia inaequalis): 2 (greater than 80% disease control) | disease control rating EGP [2]: 2 (greater than 80% disease control) | disease control rating LN (Leptosphaeria nodorum): 0 (less than 50% disease control) | disease control rating PO (Pyricularia oryzae): 0 (less than 50% disease control) | disease control rating RSI (Rhizoctonia solani): 0 (less than 50% disease control) | disease control rating BCB (Botrytis cinerea): 2 (greater than 80% disease control) | disease control rating PHI [3]: 0 (less than 50% disease control) | disease control rating PIP (Phytophthora infestans): 0 (less than 50% disease control)

CCCN(CCC)C1COC2(CCC(C(C)(C)C)CC2)C1 (stereo not drawn) [Compound 13]
disease control rating AS (Alternaria solani): 0 (less than 50% disease control) | disease control rating EGT [1]: 2 (greater than 80% disease control) | disease control rating PVA (Plasmopara viticola): 0 (less than 50% disease control) | disease control rating VII (Venturia inaequalis): 2 (greater than 80% disease control) | disease control rating EGP [2]: 2 (greater than 80% disease control) | disease control rating LN (Leptosphaeria nodorum): 0 (less than 50% disease control) | disease control rating PO (Pyricularia oryzae): 0 (less than 50% disease control) | disease control rating RSI (Rhizoctonia solani): 0 (less than 50% disease control) | disease control rating BCB (Botrytis cinerea): 0 (less than 50% disease control) | disease control rating PHI [3]: 0 (less than 50% disease control) | disease control rating PIP (Phytophthora infestans): 0 (less than 50% disease control)

CCCCCCN(C)C1COC2(CCC(C(C)(C)C)CC2)C1 (stereo not drawn) [Compound 14]
disease control rating AS (Alternaria solani): 0 (less than 50% disease control) | disease control rating EGT [1]: 2 (greater than 80% disease control) | disease control rating PVA (Plasmopara viticola): 0 (less than 50% disease control) | disease control rating VII (Venturia inaequalis): 2 (greater than 80% disease control) | disease control rating EGP [2]: 2 (greater than 80% disease control) | disease control rating LN (Leptosphaeria nodorum): 1 (about 50-80% disease control) | disease control rating PO (Pyricularia oryzae): 0 (less than 50% disease control) | disease control rating RSI (Rhizoctonia solani): 1 (about 50-80% disease control) | disease control rating BCB (Botrytis cinerea): 0 (less than 50% disease control) | disease control rating PHI [3]: 2 (greater than 80% disease control) | disease control rating PIP (Phytophthora infestans): 0 (less than 50% disease control)

CC1CC(C)CN(C2COC3(CCC(C(C)(C)C)CC3)C2)C1 (stereo not drawn) [Compound 15]
disease control rating AS (Alternaria solani): 0 (less than 50% disease control) | disease control rating EGT [1]: 2 (greater than 80% disease control) | disease control rating PVA (Plasmopara viticola): 0 (less than 50% disease control) | disease control rating VII (Venturia inaequalis): 2 (greater than 80% disease control) | disease control rating EGP [2]: 2 (greater than 80% disease control) | disease control rating LN (Leptosphaeria nodorum): 0 (less than 50% disease control) | disease control rating PO (Pyricularia oryzae): 0 (less than 50% disease control) | disease control rating RSI (Rhizoctonia solani): 0 (less than 50% disease control) | disease control rating BCB (Botrytis cinerea): 0 (less than 50% disease control) | disease control rating PHI [3]: 0 (less than 50% disease control) | disease control rating PIP (Phytophthora infestans): 0 (less than 50% disease control)
